Experimental data as given in patent publication US10294202B2, “Pyrrolidinones as herbicides” (FMC Corporation, priority 2013, dated 2019).
Where two headings read alike, the source gives them in different places.

Experiments:
wheat = experiment: Test A pre-/postemergence herbicide test; type: in vivo, Triticum aestivum; details: for Wheat plant response rating: Preemergence, visual rating on 0 to 100 scale (0 no effect, 100 complete control); for plant injury at 125 g/ha / plant injury at 500 g/ha: Triticum aestivum, 240 h, read-out: Plant response rating, Wheat
Summary of the method: (§1)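 Formulated compound (non-phytotoxic solvent, surfactant) sprayed pre- onto soil of seeded loam/sand pots or post- onto seedlings at 1–2 leaves; ~10 d greenhouse; 0–100 visual control rating versus untreated.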

giant foxtail = experiment: Test A pre-/postemergence herbicide test; type: in vivo, Setaria faberii; details: for Foxtail, Giant plant response rating: Preemergence, visual rating on 0 to 100 scale (0 no effect, 100 complete control); for pest or weed control at 125 g/ha / pest or weed control at 500 g/ha: Setaria faberi, 240 h, read-out: Plant response rating, Foxtail, Giant
Summary of the method: as §1

pigweed = experiment: Test A pre-/postemergence herbicide test; type: in vivo, Amaranthus retroflexus; details: for Pigweed plant response rating: Preemergence, visual rating on 0 to 100 scale (0 no effect, 100 complete control); for pest or weed control at 125 g/ha / pest or weed control at 500 g/ha: Amaranthus retroflexus, 240 h, read-out: Plant response rating, Pigweed
Summary of the method: as §1

foxtail, giant = experiment: Test C pre-/postemergence herbicide test; type: in vivo, Setaria faberii
Excerpt: (§2) Seeds of plant species selected from blackgrass (Alopecurus myosuroides), ryegrass, Italian (Italian ryegrass, Lolium multiflorum), wheat (winter wheat, Triticum aestivum), galium (catchweed bedstraw, Galium aparine), corn (Zea mays), crabgrass, large (large crabgrass, Digitaria sanguinalis), foxtail, giant (giant foxtail, Setaria faberii), johnsongrass (Sorghum halepense), lambsquarters (Chenopodium album), morningglory (Ipomoea coccinea), nutsedge, yellow (yellow nutsedge, Cyperus esculentus), pigweed (Amaranthus retroflexus), ragweed (common ragweed, Ambrosia elatior), soybean (Glycine max), barnyardgrass (Echinochloa crus-galli), oilseed rape (Brassica napus), waterhemp (common waterhemp, Amaranthus rudis), kochia (Kochia scoparia), oat, wild (wild oat, Avena fatua), surinam grass (Brachiaria decumbens), foxtail, green (green foxtail, Setaria viridis), goosegrass (Eleusine indica), bromegrass, downy (downy bromegrass, Bromus tectorum), nightshade (eastern black nightshade, Solanum ptycanthum), cocklebur (common cocklebur, Xanthium strumarium), cupgrass, woolly (woolly cupgrass, Eriochloa villosa), bermudagrass (Cynodon dactylon), sunflower, (common oilseed sunflower, Helianthus annuus), Russian thistle (Salsola kali) and velvetleaf (Abutilon theophrasti) were planted into a blend of loam soil and sand and treated preemergence with test chemicals formulated in a non-phytotoxic solvent mixture which included a surfactant. At the same time, plants selected from these crop and weed species and also barley (winter barley, Hordeum vulgare), […]), chickweed (common chickweed, Stellaria media), deadnettle (henbit deadnettle, Lamium amplexicaule), and canarygrass (littleseed canarygrass, Phalaris minor) were planted in pots containing Redi-Earth® planting medium (Scotts Company, 14111 Scottslawn Road, Marysville, Ohio 43041) comprising spaghnum peat moss, vermiculite, wetting agent and starter nutrients and treated with postemergence applications of test chemicals formulated in the same manner. Plants ranged in height from 2 to 18 cm (1- to 4-leaf stage) for postemergence treatments. Treated plants and controls were maintained in a greenhouse for 13 to 15 days, after which time all species were compared to controls and visually evaluated. Plant response ratings, summarized in Table C, are based on a scale of 0 to 100 where 0 is no effect and 100 is complete control. A dash (-) response means no test result.

nutsedge, yellow = experiment: Test C pre-/postemergence herbicide test; type: in vivo, Cyperus esculentus
Excerpt: as §2

johnsongrass = experiment: Test C pre-/postemergence herbicide test; type: in vivo, Sorghum halepense
Excerpt: as §2

ryegrass, Italian = experiment: Test C pre-/postemergence herbicide test; type: in vivo, Lolium multiflorum
Excerpt: as §2

blackgrass = experiment: Test C pre-/postemergence herbicide test; type: in vivo, Alopecurus myosuroides
Excerpt: as §2

ragweed = experiment: Test C pre-/postemergence herbicide test; type: in vivo, Ambrosia elatior
Excerpt: as §2

crabgrass, large = experiment: Test C pre-/postemergence herbicide test; type: in vivo, Digitaria sanguinalis
Excerpt: as §2

[1] = Postemergence, 500 g ai/ha, 0 to 100 scale (0 no effect, 100 complete control)
[2] = preemergence, 500 g ai/ha, 0 to 100 scale
[3] = Postemergence, 125 g ai/ha, 0 to 100 scale, 0 no effect, 100 complete control
[4] = Postemergence, 125 g ai/ha, 0 to 100 scale, 0 is no effect, 100 is complete control
[5] = 125 g ai/ha, visual rating, 0 to 100 scale, 0 no effect, 100 complete control, approximately 10 days, preemergence
[6] = preemergence, 500 g ai/ha, 0 to 100 scale, 0 is no effect and 100 is complete control
[7] = Postemergence, 31 g ai/ha, scale 0 (no effect) to 100 (complete control)
[8] = Postemergence, 62 g ai/ha, scale 0 to 100 (0 no effect, 100 complete control)
[9] = Postemergence, 125 g ai/ha, scale 0 to 100 (0 no effect, 100 complete control)
[10] = Postemergence, 250 g ai/ha, scale 0 to 100 (0 no effect, 100 complete control)
[11] = Preemergence, 31 g ai/ha, scale 0 to 100, 0 is no effect and 100 is complete control
[12] = Preemergence, 62 g ai/ha, scale 0 to 100
[13] = Preemergence, 125 g ai/ha, scale 0 to 100 (0 no effect, 100 complete control)
[14] = post-emergence, Postemergence, 125 g ai/ha, 0 to 100 scale, 0 no effect, 100 complete control
[15] = post-emergence, Postemergence, 500 g ai/ha, 0 to 100 scale (0 no effect, 100 complete control)
[16] = pre-emergence, preemergence, 500 g ai/ha, 0 to 100 scale

## O=C1NCC(c2ccc(F)c(F)c2)C1C(=O)Nc1ccccc1C(F)(F)F (racemic) [Compound 6]
wheat; [1]
  Plant response rating, Wheat: 0
wheat; 125 g ai/ha
  Wheat plant response rating: 0
wheat; [2]
  Plant response rating, Wheat: 0
Giant foxtail; [3]
  Plant response rating, Foxtail, Giant: 70
Giant foxtail; [1]
  Plant response rating, Foxtail, Giant: 80
Giant foxtail; 125 g ai/ha
  Foxtail, Giant plant response rating: 90
Giant foxtail; [2]
  Plant response rating, Foxtail, Giant: 90
pigweed; [1]
  Plant response rating, Pigweed: 10
pigweed; 125 g ai/ha
  Pigweed plant response rating: 0
pigweed; [2]
  Plant response rating, Pigweed: 0

## O=C1NCC(c2cccc(C(F)F)c2)C1C(=O)Nc1ccccc1F (racemic) [Compound 210]
wheat; [4]
  Plant response rating, Wheat: 0
wheat; Postemergence, 500 g ai/ha
  Wheat plant response rating (0 to 100 scale, 0 is no effect, 100 is complete control): 50
Giant foxtail; [5]
  Plant response rating, Foxtail, Giant: 80
Giant foxtail; [4]
  Plant response rating, Foxtail, Giant: 50
Giant foxtail; Postemergence, 500 g ai/ha
  Foxtail, Giant plant response rating (0 to 100 scale, 0 is no effect, 100 is complete control): 90
Giant foxtail; [6]
  Plant response rating, Foxtail, Giant: 90
pigweed; [5]
  Plant response rating, Pigweed: 0
pigweed; [4]
  Plant response rating, Pigweed: 0
pigweed; Postemergence, 500 g ai/ha
  Pigweed plant response rating (0 to 100 scale, 0 is no effect, 100 is complete control): 20
pigweed; [6]
  Plant response rating, Pigweed: 50

## O=C1NCC(c2ccc(F)c(F)c2)C1C(=O)Nc1cccc(F)c1F (racemic) [Compound 101]
foxtail, giant; [7]
  Plant response rating, Foxtail, Giant: 0
foxtail, giant; [8]
  Plant response rating, Foxtail, Giant: 20
foxtail, giant; [9]
  Plant response rating, Foxtail, Giant: 75
foxtail, giant; [10]
  Plant response rating, Foxtail, Giant: 90
foxtail, giant; [11]
  Foxtail, Giant plant response rating: 95
foxtail, giant; [12]
  Plant response rating, Foxtail, Giant: 95
foxtail, giant; [13]
  Plant response rating, Foxtail, Giant: 98
foxtail, giant; Preemergence, 250 g ai/ha
  Plant response rating (scale of 0 to 100), Foxtail, Giant: 98
nutsedge, yellow; [7]
  Plant response rating, Nutsedge, Yellow: 0
nutsedge, yellow; [8]
  Plant response rating, Nutsedge, Yellow: 0
nutsedge, yellow; [9]
  Plant response rating, Nutsedge, Yellow: 0
nutsedge, yellow; [10]
  Plant response rating, Nutsedge, Yellow: 5
nutsedge, yellow; [11]
  Nutsedge, Yellow plant response rating: 0
nutsedge, yellow; [12]
  Plant response rating, Nutsedge, Yellow: 0
nutsedge, yellow; [13]
  Plant response rating, Nutsedge, Yellow: 0
nutsedge, yellow; Preemergence, 250 g ai/ha
  Plant response rating (scale of 0 to 100), Nutsedge, Yellow: 0
johnsongrass; [7]
  Plant response rating, Johnsongrass: 0
johnsongrass; [8]
  Plant response rating, Johnsongrass: 0
johnsongrass; [9]
  Plant response rating, Johnsongrass: 0
johnsongrass; [10]
  Plant response rating, Johnsongrass: 0
johnsongrass; [11]
  Johnsongrass plant response rating: 0
johnsongrass; [12]
  Plant response rating, Johnsongrass: 15
johnsongrass; [13]
  Plant response rating, Johnsongrass: 55
johnsongrass; Preemergence, 250 g ai/ha
  Plant response rating (scale of 0 to 100), Johnsongrass: 75
ryegrass, Italian; [7]
  Plant response rating, Ryegrass, Italian: 0
ryegrass, Italian; [8]
  Plant response rating, Ryegrass, Italian: 0
ryegrass, Italian; [9]
  Plant response rating, Ryegrass, Italian: 0
ryegrass, Italian; [10]
  Plant response rating, Ryegrass, Italian: 0
ryegrass, Italian; [11]
  Ryegrass, Italian plant response rating: 30
ryegrass, Italian; [12]
  Plant response rating, Ryegrass, Italian: 15
ryegrass, Italian; [13]
  Plant response rating, Ryegrass, Italian: 30
ryegrass, Italian; Preemergence, 250 g ai/ha
  Plant response rating (scale of 0 to 100), Ryegrass, Italian: 50
blackgrass; [7]
  Plant response rating, Blackgrass: 0
blackgrass; [8]
  Plant response rating, Blackgrass: 0
blackgrass; [9]
  Plant response rating, Blackgrass: 10
blackgrass; [10]
  Plant response rating, Blackgrass: 5
blackgrass; [11]
  Blackgrass plant response rating: 0
blackgrass; [12]
  Plant response rating, Blackgrass: 50
blackgrass; [13]
  Plant response rating, Blackgrass: 70
blackgrass; Preemergence, 250 g ai/ha
  Plant response rating (scale of 0 to 100), Blackgrass: 90
wheat; [3]
  Plant response rating, Wheat: 50
wheat; [1]
  Plant response rating, Wheat: 60
wheat; 125 g ai/ha
  Wheat plant response rating: 60
wheat; [2]
  Plant response rating, Wheat: 70
Giant foxtail; [3]
  Plant response rating, Foxtail, Giant: 80
Giant foxtail; [1]
  Plant response rating, Foxtail, Giant: 90
Giant foxtail; 125 g ai/ha
  Foxtail, Giant plant response rating: 90
Giant foxtail; [2]
  Plant response rating, Foxtail, Giant: 90
ragweed; [7]
  Plant response rating, Ragweed: 0
ragweed; [8]
  Plant response rating, Ragweed: 0
ragweed; [9]
  Plant response rating, Ragweed: 5
ragweed; [10]
  Plant response rating, Ragweed: 45
ragweed; [11]
  Ragweed plant response rating: 15
ragweed; [12]
  Plant response rating, Ragweed: 0
ragweed; [13]
  Plant response rating, Ragweed: 5
ragweed; Preemergence, 250 g ai/ha
  Plant response rating (scale of 0 to 100), Ragweed: 5
pigweed; [3]
  Plant response rating, Pigweed: 20
pigweed; [1]
  Plant response rating, Pigweed: 70
pigweed; 125 g ai/ha
  Pigweed plant response rating: 10
pigweed; [2]
  Plant response rating, Pigweed: 70
crabgrass, large; [7]
  Plant response rating, Crabgrass, Large: 25
crabgrass, large; [8]
  Plant response rating, Crabgrass, Large: 50
crabgrass, large; [9]
  Plant response rating, Crabgrass, Large: 80
crabgrass, large; [10]
  Plant response rating, Crabgrass, Large: 85
crabgrass, large; [11]
  Crabgrass, Large plant response rating: 95
crabgrass, large; [12]
  Plant response rating, Crabgrass, Large: 98
crabgrass, large; [13]
  Plant response rating, Crabgrass, Large: 98
crabgrass, large; Preemergence, 250 g ai/ha
  Plant response rating (scale of 0 to 100), Crabgrass, Large: 100

## O=C1NCC(c2ccccc2)C1(Br)C(=O)Nc1ccccc1F (stereo not shown) [Compound 93, 3-bromo-N-(2-fluorophenyl)-2-oxo-4-phenyl-3-pyrrolidinecarboxamide]
wheat; 125 g ai/ha
  Wheat plant response rating: 0
wheat; [14]
  plant injury at 125 g/ha: 0%
wheat; [15]
  plant injury at 500 g/ha: 0%
wheat; [16]
  plant injury at 500 g/ha: 0%
Giant foxtail; 125 g ai/ha
  Foxtail, Giant plant response rating: 80
Giant foxtail; [14]
  pest or weed control at 125 g/ha: 10%
Giant foxtail; [15]
  pest or weed control at 500 g/ha: 60%
Giant foxtail; [16]
  pest or weed control at 500 g/ha: 90%
pigweed; [14]
  pest or weed control at 125 g/ha: 0%
pigweed; [15]
  pest or weed control at 500 g/ha: 0%
pigweed; [16]
  pest or weed control at 500 g/ha: 0%
pigweed; 125 g ai/ha
  Pigweed plant response rating: 0

## O=C1NCC(Br)(c2ccccc2)C1C(=O)Nc1ccccc1F (stereo not shown) [Compound 92, 4-bromo-N-(2-fluorophenyl)-2-oxo-4-phenyl-3-pyrrolidinecarboxamide]
wheat; 125 g ai/ha
  Wheat plant response rating: 0
wheat; [14]
  plant injury at 125 g/ha: 0%
wheat; [15]
  plant injury at 500 g/ha: 0%
wheat; [16]
  plant injury at 500 g/ha: 0%
Giant foxtail; 125 g ai/ha
  Foxtail, Giant plant response rating: 0
Giant foxtail; [14]
  pest or weed control at 125 g/ha: 0%
Giant foxtail; [15]
  pest or weed control at 500 g/ha: 10%
Giant foxtail; [16]
  pest or weed control at 500 g/ha: 90%
pigweed; [14]
  pest or weed control at 125 g/ha: 0%
pigweed; [15]
  pest or weed control at 500 g/ha: 0%
pigweed; [16]
  pest or weed control at 500 g/ha: 0%
pigweed; 125 g ai/ha
  Pigweed plant response rating: 0
